Reference: patent US20070078172A1, “MAO-B INHIBITORS USEFUL FOR TREATING OBESITY” (JENRIN DISCOVERY, priority 2005, published 2007)

Tests used:
[1] = Body weight and food intake in rats dosed for 14 weeks; assay type: in vivo, rat
Protocol: (§1) Single-housed rats weighing 230-350 grams at the start of the experiment were provided free access to laboratory rodent chow pellets and tap water. Rats were divided into two groups, eight rats per group, matched for food intake and body weight over a two week baseline period. […] The second group of rats (control rats) was similarly administered drug vehicle (0.25% methyl cellulose solution). Body weight and food intake were measured once a week for 14 weeks.

Plasma leptin = Plasma leptin levels by commercial radioimmunoassay kit; assay type: in vivo, rat; conditions: rats, 10.0 mg/kg orally once daily, end of 14 week study, vs control
Protocol: as §1
At the end of the experiment, rats were killed by exposure to carbon dioxide. Blood was collected by cardiac puncture, and rats were shaved and eviscerated. Retroperitoneal white adipose tissue, epidydimal white adipose tissue, adrenal gland, liver, kidney and testes were rapidly dissected and weighed. Plasma leptin levels were measured using a commercial radioimmunoassay kit.

[2] = Terminal tissue and organ weights (fat pads, adrenal gland, liver, kidney, testes); conditions: 10.0 mg/kg orally once daily, end of 14 week study
[3] = Terminal carcass composition (lipid, water, fat free dry weight); assay type: in vivo, rat; conditions: 10.0 mg/kg orally once daily
Protocol: as §1
Terminal carcass composition was measured. Shaved, eviscerated rats were coarsely ground and dried to a constant weight at 70° C. Dehydrated carcasses were finely ground in a blender. Lipid was extracted from a homogeneous sample with petroleum ether. Water and lipid contents were determined gravimetrically, and the remaining carcass component was termed fat free dry weight.

SMILES: C#CCN(C)[C@H](C)Cc1ccccc1 [L-selegiline]
- lower weight gain compared to control rats ([1]; 10.0 mg/kg L-selegiline hydrochloride orally by gavage once daily, 14 week study): 14%
- weight gain less than untreated counterparts ([1]; 10.0 mg/kg orally once daily, 14 week study): approximately 34 g
- food intake versus control group ([1]; 10.0 mg/kg orally once daily, 14 weeks): comparable
- plasma leptin levels reduced (Plasma leptin): 41%
- epidydimal fat pad weighed less than in control rats [2]: 23%
- retroperitoneal fat pad weighed less than in control rats [2]: 27%
- weight of non-fat organs (adrenal gland, liver, kidney, testes) ([2]; rats): did not weigh less
- adipose tissue gain less than that of untreated control rats ([3]; 14 weeks): 94%
- share of the overall 34 gram weight loss accounted for by body fat reduction ([3]; rats, 14 weeks): 94%
- lean body mass ([3]; rats, terminal carcass): no reduction
- whole carcass water content ([3]; rats, terminal carcass): no reduction
